{"source": "patent US10463644B2", "about": "“Uses of sesquiterpene lactone compounds and their derivatives in drugs preparation” (ACCENDATECH, priority 2013, dated 2019)", "key": {"[1]": {"system": "TNF-α secreted by synoviocyte", "assay": "Content of TNF-α in culture supernatant of synoviocyte of RA model rats given test compound", "assay_type": "in vivo", "settings": "rat RA model, dose 30 mg/kg.2d; normal control 0.38 ± 0.027, NaCl 0.74 ± 0.098", "in_short": "(§1)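 Content of secreted TNF-α, PGE2 and IL-1β measured in supernatants of synoviocytes cultured from RA model rats. Animals dosed at 30 mg/kg.2d; normal control and NaCl groups included.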"}, "[2]": {"system": "IL-1β secreted by synoviocyte", "assay": "Content of IL-1β in culture supernatant of synoviocyte of RA model rats given test compound", "assay_type": "in vivo", "settings": "rat RA model, dose 30 mg/kg.2d; normal control 0.16 ± 0.034, NaCl 0.49 ± 0.136", "in_short": "as §1"}, "[3]": {"system": "PGE2 secreted by synoviocyte", "assay": "Content of PGE2 in culture supernatant of synoviocyte of RA model rats given test compound", "assay_type": "in vivo", "settings": "rat RA model, dose 30 mg/kg.2d; normal control 8.34 ± 1.29, NaCl 32.44 ± 10.32", "in_short": "as §1"}, "[4]": {"system": "cancer stem cells", "assay": "Survival rate of cancer stem cells after test compound is added (flow cytometry, Annexin V-FITC/PI, clinical specimen)", "assay_type": "cell-based, patient", "settings": "Homo sapiens, 18 h", "in_short": "(§2)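 Survival was determined in clinical specimens after an 18 h compound treatment, using Annexin V-FITC/PI apoptosis staining and flow cytometry.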"}, "[5]": {"system": "cancer cells", "assay": "Survival rate of cancer cells after test compound is added (flow cytometry, Annexin V-FITC/PI, clinical specimen)", "assay_type": "cell-based, patient", "settings": "Homo sapiens, 18 h, read-out: Survival rate (%) All cells (Stem cells and ordinary cells)", "in_short": "as §2"}, "[6]": {"settings": "Head and neck squamous cell carcinomas"}}, "note": "Read-outs that look alike come from different tables or passages of the source."}
{"compound": "C=C1C(=O)O[C@H]2[C@H]1CC[C@@](C)(OC)C1CC[C@@](C)(O)[C@@H]12", "note": "(stereo partly drawn) [Compound 47]", "values": [{"measurement": "Content of TNF-α in culture supernatant of synoviocyte (x ± s)", "setting": "[1]", "value": "0.64 ± 0.062", "unit": "ng/mL"}, {"measurement": "Content of IL-1β in culture supernatant of synoviocyte (x ± s)", "setting": "[2]", "value": "0.34 ± 0.058", "unit": "ng/mL"}, {"measurement": "Content of PGE2 in culture supernatant of synoviocyte (x ± s)", "setting": "[3]", "value": "27.95 ± 3.67", "unit": "ng/mL"}, {"measurement": "viability at 10 µM", "setting": "[4]; AML", "value": 79, "unit": "%"}, {"measurement": "viability at 20 µM", "setting": "[4]; AML", "value": 73, "unit": "%"}, {"measurement": "viability at 10 µM", "setting": "[4]; Brain glioma", "value": 85, "unit": "%"}, {"measurement": "viability at 20 µM", "setting": "[4]; Brain glioma", "value": 79, "unit": "%"}, {"measurement": "viability at 10 µM", "setting": "[4]; Brain tumor", "value": 81, "unit": "%"}, {"measurement": "viability at 20 µM", "setting": "[4]; Brain tumor", "value": 75, "unit": "%"}, {"measurement": "viability at 10 µM", "setting": "[4]; Breast cancer", "value": 82, "unit": "%"}, {"measurement": "viability at 20 µM", "setting": "[4]; Breast cancer", "value": 73, "unit": "%"}, {"measurement": "viability at 10 µM", "setting": "[4]; CLL", "value": 82, "unit": "%"}, {"measurement": "viability at 20 µM", "setting": "[4]; CLL", "value": 73, "unit": "%"}, {"measurement": "viability at 10 µM", "setting": "[4]; CML", "value": 85, "unit": "%"}, {"measurement": "viability at 20 µM", "setting": "[4]; CML", "value": 77, "unit": "%"}, {"measurement": "viability at 10 µM", "setting": "[4]; Children hepatoblastoma", "value": 85, "unit": "%"}, {"measurement": "viability at 20 µM", "setting": "[4]; Children hepatoblastoma", "value": 79, "unit": "%"}, {"measurement": "viability at 10 µM", "setting": "[4]; Colon adenocarcinoma", "value": 88, "unit": "%"}, {"measurement": "viability at 20 µM", "setting": "[4]; Colon adenocarcinoma", "value": 81, "unit": "%"}, {"measurement": "viability at 10 µM", "setting": "[4]; Colorectal cancer", "value": 79, "unit": "%"}, {"measurement": "viability at 20 µM", "setting": "[4]; Colorectal cancer", "value": 72, "unit": "%"}, {"measurement": "viability at 10 µM", "setting": "[4]; Gastric cancer", "value": 82, "unit": "%"}, {"measurement": "viability at 20 µM", "setting": "[4]; Gastric cancer", "value": 76, "unit": "%"}, {"measurement": "viability at 10 µM", "setting": "[4]; Gastrointestinal tumor", "value": 78, "unit": "%"}, {"measurement": "viability at 20 µM", "setting": "[4]; Gastrointestinal tumor", "value": 74, "unit": "%"}, {"measurement": "viability at 10 µM", "setting": "[4]; Glioma", "value": 87, "unit": "%"}, {"measurement": "viability at 20 µM", "setting": "[4]; Glioma", "value": 76, "unit": "%"}, {"measurement": "viability at 10 µM", "setting": "[4]; [6]", "value": 86, "unit": "%"}, {"measurement": "viability at 20 µM", "setting": "[4]; [6]", "value": 78, "unit": "%"}, {"measurement": "viability at 10 µM", "setting": "[4]; Laryngeal cancer", "value": 85, "unit": "%"}, {"measurement": "viability at 20 µM", "setting": "[4]; Laryngeal cancer", "value": 79, "unit": "%"}, {"measurement": "viability at 10 µM", "setting": "[4]; Liver cancer", "value": 82, "unit": "%"}, {"measurement": "viability at 20 µM", "setting": "[4]; Liver cancer", "value": 73, "unit": "%"}, {"measurement": "viability at 10 µM", "setting": "[4]; Lung adenocarcinoma", "value": 85, "unit": "%"}, {"measurement": "viability at 20 µM", "setting": "[4]; Lung adenocarcinoma", "value": 77, "unit": "%"}, {"measurement": "viability at 10 µM", "setting": "[4]; Lung cancer", "value": 85, "unit": "%"}, {"measurement": "viability at 20 µM", "setting": "[4]; Lung cancer", "value": 79, "unit": "%"}, {"measurement": "viability at 10 µM", "setting": "[4]; Malignant melanoma", "value": 82, "unit": "%"}, {"measurement": "viability at 20 µM", "setting": "[4]; Malignant melanoma", "value": 76, "unit": "%"}, {"measurement": "viability at 10 µM", "setting": "[4]; Nasopharynx cancer", "value": 82, "unit": "%"}, {"measurement": "viability at 20 µM", "setting": "[4]; Nasopharynx cancer", "value": 74, "unit": "%"}, {"measurement": "viability at 10 µM", "setting": "[4]; Ovarian cancer", "value": 84, "unit": "%"}, {"measurement": "viability at 20 µM", "setting": "[4]; Ovarian cancer", "value": 78, "unit": "%"}, {"measurement": "viability at 10 µM", "setting": "[4]; Pancreatic cancer", "value": 84, "unit": "%"}, {"measurement": "viability at 20 µM", "setting": "[4]; Pancreatic cancer", "value": 78, "unit": "%"}, {"measurement": "viability at 10 µM", "setting": "[4]; Prostate cancer", "value": 85, "unit": "%"}, {"measurement": "viability at 20 µM", "setting": "[4]; Prostate cancer", "value": 77, "unit": "%"}, {"measurement": "viability at 10 µM", "setting": "[4]; Retinoblastoma", "value": 81, "unit": "%"}, {"measurement": "viability at 20 µM", "setting": "[4]; Retinoblastoma", "value": 75, "unit": "%"}, {"measurement": "viability at 10 µM", "setting": "[4]; Skin cancer", "value": 84, "unit": "%"}, {"measurement": "viability at 20 µM", "setting": "[4]; Skin cancer", "value": 78, "unit": "%"}, {"measurement": "viability at 10 µM", "setting": "[5]; AML", "value": 88, "unit": "%"}, {"measurement": "viability at 20 µM", "setting": "[5]; AML", "value": 82, "unit": "%"}, {"measurement": "viability at 10 µM", "setting": "[5]; Brain glioma", "value": 93, "unit": "%"}, {"measurement": "viability at 20 µM", "setting": "[5]; Brain glioma", "value": 86, "unit": "%"}, {"measurement": "viability at 10 µM", "setting": "[5]; Brain tumor", "value": 87, "unit": "%"}, {"measurement": "viability at 20 µM", "setting": "[5]; Brain tumor", "value": 83, "unit": "%"}, {"measurement": "viability at 10 µM", "setting": "[5]; Breast cancer", "value": 91, "unit": "%"}, {"measurement": "viability at 20 µM", "setting": "[5]; Breast cancer", "value": 87, "unit": "%"}, {"measurement": "viability at 10 µM", "setting": "[5]; CLL", "value": 91, "unit": "%"}, {"measurement": "viability at 20 µM", "setting": "[5]; CLL", "value": 87, "unit": "%"}, {"measurement": "viability at 10 µM", "setting": "[5]; CML", "value": 92, "unit": "%"}, {"measurement": "viability at 20 µM", "setting": "[5]; CML", "value": 89, "unit": "%"}, {"measurement": "viability at 10 µM", "setting": "[5]; Children hepatoblastoma", "value": 88, "unit": "%"}, {"measurement": "viability at 20 µM", "setting": "[5]; Children hepatoblastoma", "value": 85, "unit": "%"}, {"measurement": "viability at 10 µM", "setting": "[5]; Colon adenocarcinoma", "value": 91, "unit": "%"}, {"measurement": "viability at 20 µM", "setting": "[5]; Colon adenocarcinoma", "value": 89, "unit": "%"}, {"measurement": "viability at 10 µM", "setting": "[5]; Colorectal cancer", "value": 88, "unit": "%"}, {"measurement": "viability at 20 µM", "setting": "[5]; Colorectal cancer", "value": 81, "unit": "%"}, {"measurement": "viability at 10 µM", "setting": "[5]; Gastric cancer", "value": 88, "unit": "%"}, {"measurement": "viability at 20 µM", "setting": "[5]; Gastric cancer", "value": 89, "unit": "%"}, {"measurement": "viability at 10 µM", "setting": "[5]; Gastrointestinal tumor", "value": 89, "unit": "%"}, {"measurement": "viability at 20 µM", "setting": "[5]; Gastrointestinal tumor", "value": 81, "unit": "%"}, {"measurement": "viability at 10 µM", "setting": "[5]; Glioma", "value": 94, "unit": "%"}, {"measurement": "viability at 20 µM", "setting": "[5]; Glioma", "value": 87, "unit": "%"}, {"measurement": "viability at 10 µM", "setting": "[5]; [6]", "value": 93, "unit": "%"}, {"measurement": "viability at 20 µM", "setting": "[5]; [6]", "value": 92, "unit": "%"}, {"measurement": "viability at 10 µM", "setting": "[5]; Laryngeal cancer", "value": 93, "unit": "%"}, {"measurement": "viability at 20 µM", "setting": "[5]; Laryngeal cancer", "value": 86, "unit": "%"}, {"measurement": "viability at 10 µM", "setting": "[5]; Liver cancer", "value": 91, "unit": "%"}, {"measurement": "viability at 20 µM", "setting": "[5]; Liver cancer", "value": 87, "unit": "%"}, {"measurement": "viability at 10 µM", "setting": "[5]; Lung adenocarcinoma", "value": 92, "unit": "%"}, {"measurement": "viability at 20 µM", "setting": "[5]; Lung adenocarcinoma", "value": 89, "unit": "%"}, {"measurement": "viability at 10 µM", "setting": "[5]; Lung cancer", "value": 93, "unit": "%"}, {"measurement": "viability at 20 µM", "setting": "[5]; Lung cancer", "value": 86, "unit": "%"}, {"measurement": "viability at 10 µM", "setting": "[5]; Malignant melanoma", "value": 89, "unit": "%"}, {"measurement": "viability at 20 µM", "setting": "[5]; Malignant melanoma", "value": 86, "unit": "%"}, {"measurement": "viability at 10 µM", "setting": "[5]; Nasopharynx cancer", "value": 88, "unit": "%"}, {"measurement": "viability at 20 µM", "setting": "[5]; Nasopharynx cancer", "value": 85, "unit": "%"}, {"measurement": "viability at 10 µM", "setting": "[5]; Ovarian cancer", "value": 91, "unit": "%"}, {"measurement": "viability at 20 µM", "setting": "[5]; Ovarian cancer", "value": 88, "unit": "%"}, {"measurement": "viability at 10 µM", "setting": "[5]; Pancreatic cancer", "value": 91, "unit": "%"}, {"measurement": "viability at 20 µM", "setting": "[5]; Pancreatic cancer", "value": 88, "unit": "%"}, {"measurement": "viability at 10 µM", "setting": "[5]; Prostate cancer", "value": 92, "unit": "%"}, {"measurement": "viability at 20 µM", "setting": "[5]; Prostate cancer", "value": 89, "unit": "%"}, {"measurement": "viability at 10 µM", "setting": "[5]; Retinoblastoma", "value": 87, "unit": "%"}, {"measurement": "viability at 20 µM", "setting": "[5]; Retinoblastoma", "value": 83, "unit": "%"}, {"measurement": "viability at 10 µM", "setting": "[5]; Skin cancer", "value": 91, "unit": "%"}, {"measurement": "viability at 20 µM", "setting": "[5]; Skin cancer", "value": 88, "unit": "%"}]}
